For this test, the system named is hepatocellular carcinoma cell line Hub-7. Put plainly: Cell proliferation assay (CELL-TITER GLO cell viability). The format is cell-based. To be noted: Hub-7 cells, 24 h incubation, read-out: Inhibition of Cell Proliferation EC50. The protocol:
The activity of a test compound was determined in a cell proliferation assay using the hepatocellular carcinoma cell line […]. Cells (4,000 cells per well) were seeded in a 96-well tissue culture plate. After incubated overnight, a test compound was added at predetermined concentrations, starting with 10 μM and followed by 3-fold serial dilution. After the cells were incubated for 24 h, cell viability was determined using a CELL-TITER GLO® assay. The CELL-TITER GLO® reagent (50 μL) was added to each well and the luminescence was measured by a multimode microplate reader after a brief period of shaking. EC50 values were determined for the test compound. The results are summarized in Table 1, wherein A represents a value no greater than 100 nM, B represents a value greater than 100 nM but no greater than 500 nM, C represents a value greater than 500 nM but no greater than 2 μM, D represents a value greater than 2 μM but no greater than 10 μM; and E represents a value greater than 10 μM.

Read-outs that look alike come from different tables or passages of the source.

With `C#CC(=O)N(c1cccc2c1CCC2=O)C1(C(=O)NCc2ccccc2)CCOCC1` [A148, N-Benzyl-4-(N-(1-oxo-2,3-dihydro-1H-inden-4-yl)propiolamido)tetrahydro-2H-pyran-4-carboxamide], the EC50 (24 h) was at most 100 nM.
On the same count and under the same terms, as for `C#CC(=O)N(c1ccc(OC)cc1OC)C1(C(=O)NCc2ccccc2)CCOCC1` [A157, N-Benzyl-4-(N-(2,4-dimethoxyphenyl)propiolamido)tetrahydro-2H-pyran-4-carboxamide], the figure is at most 100 nM; as for `C#CC(=O)N(c1ccc(S(N)(=O)=O)cc1)C(C(=O)NCc1ccccc1)c1cccc(N)c1` (stereo not drawn) [A50, N-(1-(3-Aminophenyl)-2-(benzylamino)-2-oxoethyl)-N-(4-sulfamoylphenyl)-propiolamide], above 10000 nM; as for `Nc1ccc(C(C(=O)NCCc2ccccc2)N(C(=O)CCl)c2cccc(Cl)c2)cc1` (stereo not drawn) [C6, 2-chloro-N-(3-chlorophenyl)-N-(1-(4-aminophenyl)-2-oxo-2-(phenethylamino)ethyl)acetamide], 500 to 2000 nM.
Still for that read-out and setting: in the case of `C#CC(=O)N(c1ccc(S(N)(=O)=O)cc1)C(C(=O)NCc1ccccc1)c1ccc(N)cc1` (stereo not drawn) [A68, N-(1-(4-Aminophenyl)-2-(benzylamino)-2-oxoethyl)-N-(4-sulfamoylphenyl)-propiolamide] it was above 10000 nM; in that of `C#CC(=O)N(c1cccc(Cl)c1)C(C(=O)NCc1ccccc1)c1ccccc1F` (stereo not drawn) [A90, N-(2-(Benzylamino)-1-(2-fluorophenyl)-2-oxoethyl)-N-(3-chlorophenyl)-propiolamide], at most 100 nM.
On the same count and under the same terms, in the case of `C#CC(=O)N(c1cccc(Cl)c1)C1(C(=O)NCC(=O)N2CCCC(CO)C2)CCOCC1` (stereo not drawn) [A194, 4-(N-(3-Chlorophenyl)propiolamido)-N-(2-(3-(hydroxymethyl)piperidin-1-yl)-2-oxoethyl)tetrahydro-2H-pyran-4-carboxamide] it was 2000 to 10000 nM; in that of `C#CC(=O)N(c1cccc(Cl)c1)C1(C(=O)NCC(=O)NCc2ccccc2Cl)CCOCC1` [A187, N-(2-((2-Chlorobenzyl)amino)-2-oxoethyl)-4-(N-(3-chlorophenyl)propiolamido)-tetrahydro-2H-pyran-4-carboxamide], 100 to 500 nM; in that of `C#CC(=O)N(c1cccc(C#N)c1)C(C(=O)NCc1ccccc1)c1cccc(N)c1` (stereo not drawn) [A38, N-(1-(3-Aminophenyl)-2-(benzylamino)-2-oxoethyl)-N-(3-cyanophenyl)-propiolamide], 100 to 500 nM.
As for `C#CC(=O)N(c1cccc(C#N)c1)C(C(=O)NCc1ccccc1)c1ccc(N)cc1` (stereo not drawn) [A55, N-(1-(4-Aminophenyl)-2-(benzylamino)-2-oxoethyl)-N-(3-cyanophenyl)-propiolamide], the EC50 (24 h) lay in the range of 100 to 500 nM.
For `C#CC(=O)N(c1cccc(Cl)c1)C1(C(=O)NCC(=O)N2CCCC(C(=O)OC)C2)CCOCC1` (stereo not drawn) [A184, Methyl 1-(2-(4-(N-(3-chlorophenyl)propiolamido)tetrahydro-2H-pyran-4-carboxamido)acetyl)piperidine-3-carboxylate], the EC50 (24 h) was in the range of 100 to 500 nM.
Same read-out and setting: as for `O=C(NCCc1ccccc1)C(c1ccc([N+](=O)[O-])cc1)N(C(=O)CCl)c1cccc(Cl)c1` (stereo not drawn) [C5, 2-chloro-N-(3-chlorophenyl)-N-(1-(4-nitrophenyl)-2-oxo-2-(phenethylamino)ethyl)acetamide], the figure is 100 to 500 nM.
Take `C#CC(=O)N(c1cccc(Cl)c1)[C@]1(C(=O)NCc2ccccc2)CC[C@@H](O)CC1` [A111, (1R,4R)—N-Benzyl-1-(N-(3-chlorophenyl)propiolamido)-4-hydroxycyclohexane-carboxamide]: the EC50 is 100 to 500 nM.
Consider `CN(C)C/C=C/C(=O)N(c1ccc2c(cnn2C)c1)C1(C(=O)NCc2ccccc2)CCOCC1` [B10, (E)-N-Benzyl-4-(4-(dimethylamino)-N-(1-methyl-1H-indazol-5-yl)but-2-enamido)tetrahydro-2H-pyran-4-carboxamide], for which the EC50 (24 h) was above 10000 nM.
Same read-out and setting: in the case of `C#CC(=O)N(c1cccc(C(=O)OC)c1)C(C(=O)NC(C)(C)C)c1ccc(N)cc1` (stereo not drawn) [A8, Methyl 3-(N-(1-(4-aminophenyl)-2-(tert-butylamino)-2-oxoethyl)-propiolamido)-benzoate] it was at most 100 nM; in that of `C#CC(=O)N(c1cccc(Cl)c1)C(C(=O)NCC1CC1)c1ccccc1` (stereo not drawn) [A142, N-(3-Chlorophenyl)-N-(2-((cyclopropylmethyl)amino)-2-oxo-1-phenylethyl)-propiolamide], at most 100 nM; in that of `C#CC(=O)N(c1ccc2nncn2c1)C(C(=O)NCc1ccccc1)c1ccccc1` (stereo not drawn) [A105, N-([1,2,4]Triazolo[4,3-a]pyridin-6-yl)-N-(2-(benzylamino)-2-oxo-1-phenylethyl)-propiolamide], 100 to 500 nM.
Still for that read-out and setting: in the case of `C#CC(=O)N(c1cccc(Cl)c1)C1(C(=O)NCC(=O)O)CCOCC1` [A192, 2-(4-(N-(3-Chlorophenyl)propiolamido)tetrahydro-2H-pyran-4-carboxamido)-acetic acid] it was above 10000 nM; in that of `C#CC(=O)N(c1ccc2c(cnn2C)c1)C1(C(=O)NCc2ccccc2)CCOCC1` [A162, N-Benzyl-4-(N-(1-methyl-1H-indazol-5-yl)propiolamido)tetrahydro-2H-pyran-4-carboxamide], at most 100 nM.
Still for that read-out and setting: as for `C#CC(=O)N(c1ccc(N)cc1)C(C(=O)NC(C)(C)C)c1ccc(N)cc1` (stereo not drawn) [A9, N-(4-Aminophenyl)-N-(1-(4-aminophenyl)-2-(tert-butylamino)-2-oxoethyl)-propiolamide], the figure is 2000 to 10000 nM; as for `C#CC(=O)N(c1cc(Cl)ccc1F)C(C(=O)NCc1ccccc1)c1ccc(N)cc1` (stereo not drawn) [A57, N-(1-(4-Aminophenyl)-2-(benzylamino)-2-oxoethyl)-N-(5-chloro-2-fluoro-phenyl)propiolamide], at most 100 nM; as for `C#CC(=O)N(c1ccc(NS(C)(=O)=O)cc1)C(C(=O)NCc1ccccc1)c1ccc(N)cc1` (stereo not drawn) [A71, N-(1-(4-Aminophenyl)-2-(benzylamino)-2-oxoethyl)-N-(4-(methylsulfonamido)-phenyl)propiolamide], 2000 to 10000 nM.
For `C#CC(=O)N(c1ccc2c(c1)OCO2)C(C(=O)NCc1ccccc1)c1ccccc1` (stereo not drawn) [A96, N-(Benzo[d][1,3]dioxol-5-yl)-N-(2-(benzylamino)-2-oxo-1-phenylethyl)-propiolamide], the EC50 (24 h) was at most 100 nM.
Still for that read-out and setting: in the case of `C#CC(=O)N(c1cccc(O)c1)C(C(=O)NCc1ccccc1)c1ccc(N)cc1` (stereo not drawn) [A58, N-(1-(4-Aminophenyl)-2-(benzylamino)-2-oxoethyl)-N-(3-hydroxyphenyl)-propiolamide] it was 2000 to 10000 nM; in that of `C#CC(=O)N(C1CCC1)C1(C(=O)NCc2ccccc2)CCCC(C(=O)OC)C1` (stereo not drawn) [A168, Methyl 3-(benzylcarbamoyl)-3-(N-cyclobutylpropiolamido)cyclohexane-1-carboxylate], 500 to 2000 nM.
In the case of `Nc1cccc(N(C(=O)CCl)C(C(=O)NCCc2ccccc2)c2cccs2)c1` (stereo not drawn) [C13], the EC50 fell in the range of 2000 to 10000 nM.
For the compound `C#CC(=O)N(c1ccc(C#N)cc1)C(C(=O)NCc1ccccc1)c1cccc(N)c1` (stereo not drawn) [A48, N-(1-(3-Aminophenyl)-2-(benzylamino)-2-oxoethyl)-N-(4-cyanophenyl)-propiolamide], the EC50 (24 h) is at most 100 nM.
The same measure, in the same setting: as for `C#CC(=O)N(c1ccc2c(c1)ncn2C)C1(C(=O)NCc2ccccc2)CCOCC1` [A156, N-Benzyl-4-(N-(1-methyl-1H-benzo[d]imidazol-5-yl)propiolamido)tetrahydro-2H-pyran-4-carboxamide], the figure is 500 to 2000 nM; as for `COc1ccc(N(C(=O)CCl)C(C(=O)NCCc2ccccc2)c2ccc(NC(=O)CO)cc2)cc1Cl` (stereo not drawn) [C4, 2-chloro-N-(3-chloro-4-methoxyphenyl)-N-(1-(4-(2-hydroxyacetamido)phenyl)-2-oxo-2-(phenethylamino)ethyl)acetamide], 500 to 2000 nM.
Same read-out and setting: in the case of `C#CC(=O)N(c1ccc2c(c1)OCO2)C1(C(=O)NCc2ccccc2)CCOCC1` [A151, 4-(N-(Benzo[d][1,3]dioxol-5-yl)propiolamido)-N-benzyltetrahydro-2H-pyran-4-carboxamide] it was 100 to 500 nM; in that of `C#CC(=O)N(c1ccc(C(=O)OC)cc1)C(C(=O)NC(C)(C)C)c1ccc(N)cc1` (stereo not drawn) [A14, Methyl 4-(N-(1-(4-aminophenyl)-2-(tert-butylamino)-2-oxoethyl)-propiolamido)-benzoate], at most 100 nM; in that of `C#CC(=O)N(c1ccc(OC)c(Cl)c1)C(C(=O)NC(C)(C)C)c1ccc(N)cc1` (stereo not drawn) [A3, N-(1-(4-Aminophenyl)-2-(tert-butylamino)-2-oxoethyl)-N-(3-chloro-4-methoxy-phenyl)propiolamide], at most 100 nM.
The same measure, in the same setting: as for `C#CC(=O)N(c1cccc(Cl)c1)C(C(=O)NCc1ccccc1)c1ccccc1` (stereo not drawn) [A74, N-(2-(Benzylamino)-2-oxo-1-phenylethyl)-N-(3-chlorophenyl)propiolamide], the figure is at most 100 nM; as for `C#CC(=O)N(c1cccc(Cl)c1)C1(C(=O)NCc2ccccc2)CCC(=O)CC1` [A175, N-Benzyl-1-(N-(3-chlorophenyl)propiolamido)-4-oxocyclohexane-1-carboxamide], at most 100 nM; as for `C=CC(=O)N(c1ccc2c(cnn2C)c1)C1(C(=O)NCc2ccccc2)CCOCC1` [B11, N-Benzyl-4-(N-(1-methyl-1H-indazol-5-yl)acrylamido)tetrahydro-2H-pyran-4-carboxamide], above 10000 nM.
On to `C=C(F)C(=O)N(c1cccc(Cl)c1)C(C(=O)NCc1ccccc1)c1ccc(N)cc1` (stereo not drawn) [B3, N-(1-(4-Aminophenyl)-2-(benzylamino)-2-oxoethyl)-N-(3-chlorophenyl)-2-fluoroacrylamide], for which the EC50 (24 h) was above 10000 nM.

Values taken from patent publication US12516016B2, “GPX4 inhibitors, pharmaceutical compositions thereof, and their use for treating GPX4-mediated diseases” (EUBULUS BIOTHERAPEUTICS (HONG KONG) LIMITED, priority 2020, dated 2026).
